Here are results for six compounds from paper PMC4831050 (Journal of natural products, 2016).

One data set in a line: Stability in solution. The class given is physicochemical. To be noted: room temperature.
Data set [1] relates to L. donovani promastigotes. In words: In vitro killing of L. donovani promastigotes. The class given is cell-based, Leishmania donovani (strain LV 82). The note with it: Leishmania donovani, 72 h, read-out: L. donovani promastigotes IC50.
A short description of data set [2]: In vitro cytotoxicity, sulforhodamine B. The class given is cell-based. To be noted: human.
The conditions of data set [3]: cited from earlier work.
In data set [4] the test system is trypanosomal farnesyl diphosphate synthase (FPPS). To be noted: cited from earlier work.
Data set [5] has as its system human farnesyl diphosphate synthase (FPPS). To be noted: cited from earlier work.
Data set [6] relates to L. donovani promastigotes. The note with it: isolated from other plant species; cited from earlier work.
Where [7] appears, read: HT-29 colorectal carcinoma cells.

In brackets after ≈: the same amount, converted by molar mass. A value given as a limit tells only on which side of the number the result lay.

On to `Cc1ccc2c3c1CCCC(C)(C)C3C(=O)C(C(C)C)=C2` (racemic) [Compound 4, (±)-11-dehydroxymicrostegiol], for which the stability in solution result in the data set “Stability in solution” is given as “stable in solution at room temperature”.
`CC(C)c1cc2c(c(O)c1O)[C@@]1(C)CCCC(C)(C)C1=C(O)C2=O` [Compound 16, 14-deoxycoleon U]: the IC50 in data set [1] was above 20 µg/mL. In data set [2], this compound gave a concentration for half-maximal inhibition (IC50) at 72 h of 4.4 µg/mL (≈ 13.3 µM).
On to `CC(C)c1cc2c(cc1O)[C@@]1(C)CCCC(C)(C)[C@@H]1CC2` [Compound 12, ferruginol], for which the IC50 in data set [1] was determined as 13.1 µg/mL (≈ 45.7 µM). The compound further registered an IC50 at 72 h in data set [2] (setting [7]) of 11.3 µg/mL (≈ 39.4 µM). In addition, in data set [3], the “reported antioxidant and gastroprotective activity” value is “bioavailable antioxidant and gastroprotective agent”.
Regarding `CC(C)C1=CC2=CC(=O)[C@H]3C(C)(C)CCC[C@]3(C)C2=C(O)C1=O` [Compound 10, taxodione], the “inhibition of trypanosomal farnesyl diphosphate synthase (FPPS)” value in data set [4] is “inhibitor”. Besides, the IC50 in data set [1] came out at 0.5 µg/mL (≈ 1.59 µM). In data set [2] (setting [7]), this compound came in with an IC50 at 72 h of 0.8 µg/mL (≈ 2.54 µM). In addition, the “inhibition of human farnesyl diphosphate synthase (FPPS)” value in data set [5] was “inhibitor”. Further, the “antileishmanial activity against L. donovani promastigotes in vitro” value in data set [6] is recorded as “potent antileishmanial agent”.
For the compound `COCC(=O)[C@H]1C(C)(C)CCC[C@]1(C)C1=C(O)C(=O)C(C(C)C)=CC1=O` [Compound 2, (1′S,2′S)-6-hydroxy-4-isopropyl-2′-(2-methoxyacetyl)-1′,3′,3′-trimethyl-[1,1′-bi(cyclohexane)]-3,6-diene-2,5-dione], the IC50 in data set [1] was found to be 2.5 µg/mL (≈ 6.9 µM). In data set [2] (setting [7]), this compound displayed a 50% inhibitory concentration (IC50) at 72 h of 1.6 µg/mL (≈ 4.41 µM).
On the same counts, the results for `CC(C)c1cc2c(cc1O)[C@@]1(C)CCCC(C)(C)[C@@H]1[C@@H](O)C2=O` [Compound 14, 6α-hydroxysugiol] are 7.8 µg/mL (≈ 24.6 µM) and 11.4 µg/mL (≈ 36 µM).

What is called IC50 is the point on the concentration scale where inhibition reaches its midpoint.
